Consider 3 compounds from ChEMBL document CHEMBL2440112, “Structure-activity relationships of the aromatic site in novel anticonvulsant pyrrolo[1,2-a]pyrazine derivatives” (Bioorg Med Chem Lett, 2013).

Structures are written as SMILES. The source made the active and inactive calls. The rule behind the calls is not given here.

Data set [1] relates to Mus musculus. Nature of the data set: Neurotoxicity in albino mouse minimal clonic seizure model assessed as minimal motor impairment at 100 mg/kg, ip after 4 hrs by rotorod test. The class given is toxicity, organism-based. Also on record: dose 100 mg/kg, route intraperitoneal. As to conditions: in vivo. A general note: In the rotarod test animals must keep their balance on a rotating rod.

Data set [2] has as its system Mus musculus. Nature of the data set: Neurotoxicity in albino mouse minimal clonic seizure model assessed as minimal motor impairment at 100 mg/kg, ip after 2 hrs by rotorod test. The class given is toxicity, organism-based. Also on record: dose 100 mg/kg, route intraperitoneal. As to conditions: in vivo.
The test system of data set [3] is Mus musculus. Nature of the data set: Neurotoxicity in albino mouse minimal clonic seizure model assessed as minimal motor impairment at 100 mg/kg, ip after 1 hr by rotorod test. The class given is toxicity, organism-based. The arrangement: dose 100 mg/kg, route intraperitoneal. The settings on record: in vivo.
Data set [4] has as its system Mus musculus. Nature of the data set: Neurotoxicity in albino mouse minimal clonic seizure model assessed as minimal motor impairment at 100 mg/kg, ip after 0.5 hrs by rotorod test. The class given is toxicity, organism-based. The arrangement: dose 100 mg/kg, route intraperitoneal. The settings on record: in vivo.
The test system of data set [5] is Mus musculus. The data set can be described thus: Neurotoxicity in albino mouse minimal clonic seizure model assessed as minimal motor impairment at 100 mg/kg, ip after 0.25 hrs by rotorod test. The class given is toxicity, organism-based. The arrangement: dose 100 mg/kg, route intraperitoneal. The settings on record: in vivo.
In data set [6] the test system is Mus musculus. Nature of the data set: Anticonvulsant activity in albino mouse assessed as protection against 6 Hz psychomotor seizure at 100 mg/kg, ip after 4 hrs by minimal clonic seizure test. The class given is functional, organism-based. Also on record: dose 100 mg/kg.
Data set [7] has as its system Mus musculus. Nature of the data set: Anticonvulsant activity in albino mouse assessed as protection against 6 Hz psychomotor seizure at 100 mg/kg, ip after 2 hrs by minimal clonic seizure test. The class given is functional, organism-based. Also on record: dose 100 mg/kg.
For data set [8], the system named is Mus musculus. The data set can be described thus: Anticonvulsant activity in albino mouse assessed as protection against 6 Hz psychomotor seizure at 100 mg/kg, ip after 1 hr by minimal clonic seizure test. The class given is functional, organism-based. Also on record: dose 100 mg/kg.
Data set [9] has as its system Mus musculus. Nature of the data set: Anticonvulsant activity in albino mouse assessed as protection against 6 Hz psychomotor seizure at 100 mg/kg, ip after 0.5 hrs by minimal clonic seizure test. The class given is functional, organism-based. The arrangement: dose 100 mg/kg.
Data set [10] relates to Mus musculus. Nature of the data set: Anticonvulsant activity in albino mouse assessed as protection against 6 Hz psychomotor seizure at 100 mg/kg, ip after 0.25 hrs by minimal clonic seizure test. The class given is functional, organism-based. Also on record: dose 100 mg/kg.
The test system of data set [11] is Rattus norvegicus. Nature of the data set: Neurotoxicity in albino Sprague-Dawley rat assessed as minimal motor impairment at 30 mg/kg, ip after 4 hrs by rotorod test. The class given is toxicity, organism-based. Also on record: dose 30 mg/kg, route intraperitoneal. The settings on record: in vivo.
The test system of data set [12] is Rattus norvegicus. The data set can be described thus: Neurotoxicity in albino Sprague-Dawley rat assessed as minimal motor impairment at 30 mg/kg, ip after 2 hrs by rotorod test. As to conditions: in vivo. Also on record: dose 30 mg/kg, route intraperitoneal. The class given is toxicity, organism-based.
The subject of data set [13] is Rattus norvegicus. The data set can be described thus: Neurotoxicity in albino Sprague-Dawley rat assessed as minimal motor impairment at 30 mg/kg, ip after 1 hr by rotorod test. The class given is toxicity, organism-based. The arrangement: dose 30 mg/kg, route intraperitoneal. As to conditions: in vivo.
The test system of data set [14] is Rattus norvegicus. Nature of the data set: Neurotoxicity in albino Sprague-Dawley rat assessed as minimal motor impairment at 30 mg/kg, ip after 0.5 hrs by rotorod test. The class given is toxicity, organism-based. Also on record: dose 30 mg/kg, route intraperitoneal. As to conditions: in vivo.
Data set [15] has as its system Rattus norvegicus. Nature of the data set: Neurotoxicity in albino Sprague-Dawley rat assessed as minimal motor impairment at 30 mg/kg, ip after 0.25 hrs by rotorod test. The arrangement: dose 30 mg/kg, route intraperitoneal. As to conditions: in vivo. The class given is toxicity, organism-based.
Data set [16] has as its system Rattus norvegicus. Nature of the data set: Anticonvulsant activity in po dosed albino Sprague-Dawley rat assessed as protection against maximal electroshock-induced seizures after […] to 4 hrs. The class given is functional, organism-based. For orientation: Protection in the maximal electroshock model is a classic sign of anticonvulsant action.
The test system of data set [17] is Rattus norvegicus. Nature of the data set: Anticonvulsant activity in albino Sprague-Dawley rat assessed as protection against maximal electroshock-induced seizures at 30 mg/kg, ip after 4 hrs. The class given is functional, organism-based. The arrangement: dose 30 mg/kg.
Data set [18] has as its system Rattus norvegicus. Nature of the data set: Anticonvulsant activity in albino Sprague-Dawley rat assessed as protection against maximal electroshock-induced seizures at 30 mg/kg, ip after 2 hrs. The class given is functional, organism-based. The arrangement: dose 30 mg/kg.
The subject of data set [19] is Rattus norvegicus. Nature of the data set: Anticonvulsant activity in albino Sprague-Dawley rat assessed as protection against maximal electroshock-induced seizures at 30 mg/kg, ip after 1 hr. The class given is functional, organism-based. Also on record: dose 30 mg/kg.
The test system of data set [20] is Rattus norvegicus. The data set can be described thus: Anticonvulsant activity in albino Sprague-Dawley rat assessed as protection against maximal electroshock-induced seizures at 30 mg/kg, ip after 0.5 hrs. The class given is functional, organism-based. The arrangement: dose 30 mg/kg.
The subject of data set [21] is Rattus norvegicus. The data set can be described thus: Anticonvulsant activity in albino Sprague-Dawley rat assessed as protection against maximal electroshock-induced seizures at 30 mg/kg, ip after 0.25 hrs. The class given is functional, organism-based. The arrangement: dose 30 mg/kg.
Data set [22] deals with Mus musculus. Nature of the data set: Neurotoxicity in albino mouse assessed as minimal motor impairment at 100 mg/kg, ip after 4 hrs by rotorod test. The class given is toxicity, organism-based. The arrangement: dose 100 mg/kg, route intraperitoneal. As to conditions: in vivo.
Data set [23] relates to Mus musculus. Nature of the data set: Neurotoxicity in albino mouse assessed as minimal motor impairment at 100 mg/kg, ip after 1 hr by rotorod test. The class given is toxicity, organism-based. Also on record: dose 100 mg/kg, route intraperitoneal. As to conditions: in vivo.
Data set [24] deals with Mus musculus. The data set can be described thus: Neurotoxicity in albino mouse assessed as minimal motor impairment at 100 mg/kg, ip after 0.5 hrs by rotorod test. The class given is toxicity, organism-based. The arrangement: dose 100 mg/kg, route intraperitoneal. As to conditions: in vivo.
In data set [25] the test system is Mus musculus. The data set can be described thus: Neurotoxicity in albino mouse assessed as minimal motor impairment at 100 mg/kg, ip after 0.25 hrs by rotorod test. The class given is toxicity, organism-based. The arrangement: dose 100 mg/kg, route intraperitoneal. As to conditions: in vivo.
Data set [26] deals with Mus musculus. Nature of the data set: Anticonvulsant activity in albino mouse assessed as protection against subcutaneous metrazole-induced seizures at 100 mg/kg, ip after 4 hrs. The class given is functional, organism-based. The arrangement: dose 100 mg/kg.
The test system of data set [27] is Mus musculus. Nature of the data set: Anticonvulsant activity in albino mouse assessed as protection against subcutaneous metrazole-induced seizures at 100 mg/kg, ip after 1 hr. The class given is functional, organism-based. The arrangement: dose 100 mg/kg.
The subject of data set [28] is Mus musculus. The data set can be described thus: Anticonvulsant activity in albino mouse assessed as protection against subcutaneous metrazole-induced seizures at 100 mg/kg, ip after 0.5 hrs. The class given is functional, organism-based. Also on record: dose 100 mg/kg.
For data set [29], the system named is Mus musculus. Nature of the data set: Anticonvulsant activity in albino mouse assessed as protection against maximal electroshock-induced seizures at 100 mg/kg, ip after 4 hrs. The class given is functional, organism-based. Also on record: dose 100 mg/kg.
Data set [30] has as its system Mus musculus. Nature of the data set: Anticonvulsant activity in albino mouse assessed as protection against subcutaneous metrazole-induced seizures at 100 mg/kg, ip after 0.25 hrs. The class given is functional, organism-based. Also on record: dose 100 mg/kg.
Data set [31] has as its system Mus musculus. Nature of the data set: Anticonvulsant activity in albino mouse assessed as protection against maximal electroshock-induced seizures at 100 mg/kg, ip after 1 hr. The class given is functional, organism-based. Also on record: dose 100 mg/kg.
Data set [32] has as its system Mus musculus. The data set can be described thus: Anticonvulsant activity in albino mouse assessed as protection against maximal electroshock-induced seizures at 100 mg/kg, ip after 0.5 hrs. The class given is functional, organism-based. Also on record: dose 100 mg/kg.
For data set [33], the system named is Mus musculus. The data set can be described thus: Anticonvulsant activity in albino mouse assessed as protection against maximal electroshock-induced seizures at 100 mg/kg, ip after 0.25 hrs. The class given is functional, organism-based. The arrangement: dose 100 mg/kg.
Data set [34] deals with Mus musculus. Nature of the data set: Neurotoxicity in albino mouse minimal clonic seizure model assessed as loss of righting reflex at 100 mg/kg, ip after 0.25 hrs by rotorod test. The arrangement: dose 100 mg/kg, route intraperitoneal. The class given is toxicity, organism-based. As to conditions: in vivo.
In data set [35] the test system is Mus musculus. Nature of the data set: Toxicity in subcutaneous metrazole treated albino mouse assessed as myoclonic jerks at 100 mg/kg, ip after 0.5 hrs. The class given is organism-based. Also on record: dose 100 mg/kg. The settings on record: in vivo, sc.

On to `Cc1cccc([C@H]2C(=O)NC(=O)[C@@H]3CCCN23)c1`, for which the Activity result in the data set on Mus musculus [1] is “Non-toxic”; in the data set on Mus musculus [2], “Non-toxic”; in the data set with Mus musculus [3], “Non-toxic”; with Mus musculus [4] it was “Non-toxic”; in the data set on Mus musculus [5], “Toxic”; in the data set on Rattus norvegicus [11] it was “Non-toxic”. In addition, the Activity result in the data set on Rattus norvegicus [12], in the data set with Rattus norvegicus [13], in the data set on Rattus norvegicus [14], with Rattus norvegicus [15], in the data set with Mus musculus [22] and with Mus musculus [23] was “Non-toxic” throughout. Moreover, the results for the Activity entry in the data set on Mus musculus [24] and in the data set on Mus musculus [25] were “Non-toxic” and “Toxic”, respectively. Also, the outcome with Mus musculus [6], with Mus musculus [7], in the data set with Mus musculus [8], with Rattus norvegicus [16], in the data set with Rattus norvegicus [17] and with Rattus norvegicus [18] was inactive. The outcome in the data set with Rattus norvegicus [19], in the data set with Rattus norvegicus [20], in the data set with Rattus norvegicus [21], in the data set on Mus musculus [26], in the data set on Mus musculus [27] and in the data set with Mus musculus [28] was inactive. In addition, the result with Mus musculus [29] and with Mus musculus [31] was inactive. Moreover, the result with Mus musculus [9], in the data set on Mus musculus [10], in the data set on Mus musculus [30], in the data set on Mus musculus [32] and in the data set on Mus musculus [33] was Active.
Regarding `O=C1NC(=O)[C@@H]2CCCN2[C@H]1c1cccc(Cl)c1`, the Activity result is “Non-toxic” in the data set on Mus musculus [1]; “Non-toxic” in the data set with Mus musculus [2]; “Non-toxic” in the data set with Mus musculus [3]; “Toxic” in the data set on Mus musculus [4]; “Toxic” with Mus musculus [5]; “Toxic” in the data set on Mus musculus [34]. Further, the Activity result in the data set on Mus musculus [22] was “Non-toxic”; in the data set with Mus musculus [23], “Non-toxic”; with Mus musculus [24], “Non-toxic”; with Mus musculus [25] it was “Toxic”. Also, the result in the data set on Mus musculus [6], in the data set on Mus musculus [7], in the data set with Rattus norvegicus [16], in the data set with Mus musculus [26], with Mus musculus [27] and in the data set on Mus musculus [28] was inactive. Moreover, the outcome in the data set on Mus musculus [29] was inactive. The result with Mus musculus [8], with Mus musculus [9], with Mus musculus [10], with Mus musculus [30], with Mus musculus [31] and in the data set with Mus musculus [32] was Active. In addition, the outcome with Mus musculus [33] was Active.
With `O=C1NC(=O)[C@@H]2CCCN2[C@H]1c1ccc(Cl)c(Cl)c1`, the result in the data set on Rattus norvegicus [16], in the data set with Mus musculus [26], with Mus musculus [29], in the data set on Mus musculus [31], in the data set on Mus musculus [32] and in the data set with Mus musculus [33] was inactive. The Activity result in the data set on Mus musculus [22] was “Non-toxic”; in the data set with Mus musculus [23], “Non-toxic”; in the data set with Mus musculus [24] it was “Non-toxic”; in the data set on Mus musculus [25], “Non-toxic”; in the data set on Mus musculus [35] it was “Toxic”. In the data set on Mus musculus [28], the result was Active.
